Data: patent publication US8017612B2, “Piperazine compound and use thereof as a HCV polymerase inhibitor” (priority 2006, dated 2011)

Assays:
[1] = biological target: T1, HCV polymerase (NS5B) type 1b (Hepatitis C virus genotype 1b, UniProt P26663); assay: Assay of enzyme (HCV polymerase) inhibitory activity, type 1b enzyme; type: biochemical, HCV BK strain (type 1b)
T1 construct: a region encoding NS5B (J Virol 1991 March, 65(3), 1105-13, 544 amino acids after deletion of 47 amino acids on the C-terminal); 6xHis (C); made in house; host or cells: Escherichia coli
Method in brief: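 IC50 derived from [3H]UTP incorporation into TCA-insoluble RNA, compared with and without test compound. Reaction (25 °C, 60 min, Tris pH 7.5, 5 mM MgCl2): E. coli-expressed 1b NS5B Δ47 with His tag at 0.5 μg/ml, 5 μg/ml run-off substrate RNA, ATP/GTP/CTP 50 μM, UTP 2 μM.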

[2] = biological target: T2, HCV polymerase (NS5B) type 1a (Hepatitis C virus genotype 1a, UniProt P26664); assay: Assay of enzyme (HCV polymerase) inhibitory activity, type 1a enzyme; type: biochemical, HCV type 1a (cloned from the blood of patients)
T2 construct: made in house; host or cells: Escherichia coli (by the 'similar method' of the 1b enzyme)
Method in brief: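 Reactions ran 60 min at 25° C in 20 mM Tris-HCl pH 7.5, 5 mM MgCl2, 50 mM NaCl, holding genotype 1a NS5B (1.5 μg/ml, Δ47 C-terminus, 6His), substrate RNA 5 μg/ml, UTP 2 μM with tritiated UTP and other NTPs 50 μM. IC50 derived from incorporated radiolabel in filter-trapped RNA relative to uninhibited reaction.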

[3] = HCV polymerase inhibitory activity (IC50), 1b, type 1b enzyme 0.5 μg/ml, 25° C., 60 min
[4] = HCV polymerase inhibitory activity (IC50), 1a, type 1a enzyme 1.5 μg/ml, 25° C., 60 min
[5] = HCV polymerase inhibitory activity IC50, 1b, type 1b enzyme
[6] = HCV polymerase inhibitory activity IC50, 1a, type 1a enzyme

With `CC(C)c1ccc(CNC(=O)[C@H]2CN(C(=O)Nc3ccccc3Cl)CCN2S(=O)(=O)c2ccc(C(F)(F)F)cc2)cc1` [Example 269, (R)-4-(4-trifluoromethyl-benzenesulfonyl)-piperazine-1,3-dicarboxylic acid 1-[(2-chloro-phenyl)-amide] 3-(4-isopropyl-benzylamide)] the IC50 [1, 3] was over 1000 nM and the IC50 [2, 4] was over 1000 nM.
With `CCCc1ccc(CNC(=O)[C@H]2CN(c3nc4c(s3)CN(C)CC4)CCN2S(=O)(=O)c2ccc(OC(F)(F)F)cc2)cc1` [Example 548, (R)-4-(5-methyl-4,5,6,7-tetrahydro-thiazolo[5,4-c]pyridin-2-yl)-1-(4-trifluoromethoxy-benzenesulfonyl)-piperazine-2-carboxylic acid 4-propyl-benzylamide] the IC50 [1, 3] was under 100 nM and the IC50 [2, 4] was under 100 nM.
For `O=C(O)c1cnc(N2CCN(S(=O)(=O)c3ccc(OC(F)(F)F)cc3)[C@@H](C(=O)NCc3ccc(OC(F)(F)F)cc3)C2)cn1` [Example 386, (R)-4-(4-trifluoromethoxy-benzenesulfonyl)-3-(4-trifluoromethoxy-benzylcarbamoyl)-3,4,5,6-tetrahydro-2H-[1,2′]bipyrazinyl-5′-carboxylic acid], the IC50 [1, 3] was under 100 nM and the IC50 [2, 4] was under 100 nM.
`CCNC(=O)N1CCN(S(=O)(=O)c2ccc(C(F)(F)F)cc2)[C@@H](C(=O)NCc2ccc(C(C)C)cc2)C1` [Example 177, (R)-4-(4-trifluoromethyl-benzenesulfonyl)-piperazine-1,3-dicarboxylic acid 1-ethylamide 3-(4-isopropyl-benzylamide)] was tested, and the IC50 [1, 3] was 100 to 1000 nM and the IC50 [2, 4] was 100 to 1000 nM.
In the case of `CC(=O)N1CCN(S(=O)(=O)c2ccc([N+](=O)[O-])cc2)C(C(=O)NCc2ccc(C(F)(F)F)cc2)C1` (stereo not drawn) [Example 40, 4-acetyl-1-(4-nitro-benzenesulfonyl)-piperazine-2-carboxylic acid 4-trifluoromethyl-benzylamide], the IC50 [1, 3] is reported as over 1000 nM and the IC50 [2, 4] is reported as over 1000 nM.
Work on `O=C(NCc1ccc(OC(F)(F)F)cc1)[C@H]1CN(c2cnc3cnccc3n2)CCN1S(=O)(=O)c1ccc(C(F)(F)F)cc1` [Example 757, (R)-4-pyrido[3,4-b]pyrazin-2-yl-1-(4-trifluoromethyl-benzenesulfonyl)-piperazine-2-carboxylic acid 4-trifluoromethoxy-benzylamide] yielded an IC50 [1, 5] of under 100 nM and an IC50 [2, 6] of under 100 nM.
For `O=C(CC(=O)N1CCN(S(=O)(=O)c2ccc(OC(F)(F)F)cc2)[C@@H](C(=O)NCc2ccc(OC(F)(F)F)cc2)C1)Nc1nnc(Br)s1` [Example 988, (R)-4-[2-(5-bromo-[1,3,4]thiadiazol-2-ylcarbamoyl)-acetyl]-1-(4-trifluoromethoxy-benzenesulfonyl)-piperazine-2-carboxylic acid 4-trifluoromethoxy-benzylamide], the IC50 [1, 5] was over 1000 nM and the IC50 [2, 6] was over 1000 nM.
With `COC(=O)CCC(=O)N1CCN(S(=O)(=O)c2ccc(C(F)(F)F)cc2)[C@@H](C(=O)NCc2ccc(C(C)C)cc2)C1` [Example 173, 4-[(R)-3-(4-isopropyl-benzylcarbamoyl)-4-(4-trifluoromethyl-benzenesulfonyl)-piperazin-1-yl]-4-oxo-butyric acid methyl ester] the IC50 [1, 3] was 100 to 1000 nM and the IC50 [2, 4] was 100 to 1000 nM.
For `CC(C)c1ccc(CNC(=O)[C@H]2CN(c3ncn[nH]3)CCN2S(=O)(=O)c2ccc(C(F)(F)F)cc2)cc1` [Example 373, (R)-4-(2H-[1,2,4]triazol-3-yl)-1-(4-trifluoromethyl-benzenesulfonyl)-piperazine-2-carboxylic acid 4-isopropyl-benzylamide], the IC50 [1, 3] was 100 to 1000 nM and the IC50 [2, 4] was over 1000 nM.
With `O=C(NCc1ccc(OC(F)(F)F)cc1)[C@H]1CN(c2nc3nc(CC4CC4)ncc3s2)CCN1S(=O)(=O)c1ccc(OC(F)(F)F)cc1` [Example 992, (R)-4-(5-cyclopropylmethyl-thiazolo[4,5-d]pyrimidin-2-yl)-1-(4-trifluoromethoxy-benzenesulfonyl)-piperazine-2-carboxylic acid 4-trifluoromethoxy-benzylamide] the IC50 [1, 5] was under 100 nM and the IC50 [2, 6] was under 100 nM.
`CCC(F)(F)c1ccc(CNC(=O)[C@H]2CN(C(=O)Cn3nnnc3C)CCN2S(=O)(=O)c2ccc(OC(F)(F)F)cc2)cc1` [Example 467, (R)-4-[2-(5-methyl-tetrazol-1-yl)-acetyl]-1-(4-trifluoromethoxy-benzenesulfonyl)-piperazine-2-carboxylic acid 4-(1,1-difluoro-propyl)-benzylamide] showed an IC50 [1, 3] of 100 to 1000 nM and an IC50 [2, 4] of under 100 nM.
With `CCCc1ccc(CNC(=O)[C@H]2CN(c3cnc(C(=O)O)c(C)n3)CCN2S(=O)(=O)c2ccc(OC(F)(F)F)cc2)cc1` [Example 449, (R)-6′-methyl-3-(4-propyl-benzylcarbamoyl)-4-(4-trifluoromethoxy-benzenesulfonyl)-3,4,5,6-tetrahydro-2H-[1,2′]bipyrazinyl-5′-carboxylic acid] the IC50 [1, 3] was under 100 nM and the IC50 [2, 4] was under 100 nM.
In the case of `CCCc1ccc(CNC(=O)[C@H]2CN(C(=O)Nc3ccncc3)CCN2S(=O)(=O)c2ccc(OC(F)(F)F)cc2)cc1` [Example 436, (R)-4-(4-trifluoromethoxy-benzenesulfonyl)-piperazine-1,3-dicarboxylic acid 3-(4-propyl-benzylamide) 1-pyridin-4-ylamide], the IC50 [1, 3] is reported as under 100 nM and the IC50 [2, 4] is reported as under 100 nM.
`Cc1nc(N2CCN(S(=O)(=O)c3ccc(OC(F)(F)F)cc3)[C@@H](C(=O)NCc3ccc(OC(F)(F)F)cc3)C2)sc1C(=O)O` [Example 365, 4-methyl-2-[(R)-4-(4-trifluoromethoxy-benzenesulfonyl)-3-(4-trifluoromethoxy-benzylcarbamoyl)-piperazin-1-yl]-thiazole-5-carboxylic acid] showed an IC50 [1, 3] of under 100 nM and an IC50 [2, 4] of under 100 nM.
`CCCc1ccc(CNC(=O)[C@H]2CN(c3nc4c(s3)CN(C(=O)OCc3ccccc3)CC4)CCN2S(=O)(=O)c2ccc(OC(F)(F)F)cc2)cc1` [Example 534, 2-[(R)-3-(4-propyl-benzylcarbamoyl)-4-(4-trifluoromethoxy-benzenesulfonyl)-piperazin-1-yl]-6,7-dihydro-4H-thiazolo[5,4-c]pyridine-5-carboxylic acid benzyl ester] was tested, and the IC50 [1, 3] was under 100 nM and the IC50 [2, 4] was under 100 nM.
`Cc1nc(N2CCN(S(=O)(=O)c3ccc(OC(F)(F)F)cc3)[C@@H](C(=O)NCc3ccc(C(C)(C)C)cc3)C2)sc1C(=O)O` [Example 367, 2-[(R)-3-(4-tert-butyl-benzylcarbamoyl)-4-(4-trifluoromethoxy-benzenesulfonyl)-piperazin-1-yl]-4-methyl-thiazole-5-carboxylic acid] gave an IC50 [1, 3] of under 100 nM and an IC50 [2, 4] of under 100 nM.
`CCCN(CCC)CC(=O)N1CCN(S(=O)(=O)c2ccc(I)cc2)C(C(=O)NCc2ccc(N(C)C)cc2)C1` (stereo not drawn) [Example 110, 4-(2-dipropylamino-acetyl)-1-(4-iodo-benzenesulfonyl)-piperazine-2-carboxylic acid 4-dimethylamino-benzylamide] gave an IC50 [1, 3] of over 1000 nM and an IC50 [2, 4] of over 1000 nM.
With `CCCc1ccc(CNC(=O)[C@H]2CN(c3nc(C)ns3)CCN2S(=O)(=O)c2ccc(OC(F)(F)F)cc2)cc1` [Example 563, (R)-4-(3-methyl-[1,2,4]thiadiazol-5-yl)-1-(4-trifluoromethoxy-benzenesulfonyl)-piperazine-2-carboxylic acid 4-propyl-benzylamide] the IC50 [1, 3] was under 100 nM and the IC50 [2, 4] was under 100 nM.
